Results published in patent US11638764B2, “Theranostic capture agents, compositions, and methods of using and making” (Indi Molecular, Inc., priority 2018, dated 2023).
Bridge positions count the residues as written; N and C are the ends. Square brackets hold non-standard residues; d marks the D form. Triazole bridges read from a SMILES are 1,4-linked. Ends that are not written are not given here. Peptide text beside a SMILES is read from it. Lys(N3) = [N-]=[N+]=NCCCC[C@H](N)C(=O)O; Pra = C#CC[C@H](N)C(=O)O

Assays:
recombinant PSMA = recombinant PSMA (Homo sapiens, UniProt Q04609); test: ELISA against recombinant PSMA protein; assay type: binding
Sequence of recombinant PSMA (Q04609 whole entry): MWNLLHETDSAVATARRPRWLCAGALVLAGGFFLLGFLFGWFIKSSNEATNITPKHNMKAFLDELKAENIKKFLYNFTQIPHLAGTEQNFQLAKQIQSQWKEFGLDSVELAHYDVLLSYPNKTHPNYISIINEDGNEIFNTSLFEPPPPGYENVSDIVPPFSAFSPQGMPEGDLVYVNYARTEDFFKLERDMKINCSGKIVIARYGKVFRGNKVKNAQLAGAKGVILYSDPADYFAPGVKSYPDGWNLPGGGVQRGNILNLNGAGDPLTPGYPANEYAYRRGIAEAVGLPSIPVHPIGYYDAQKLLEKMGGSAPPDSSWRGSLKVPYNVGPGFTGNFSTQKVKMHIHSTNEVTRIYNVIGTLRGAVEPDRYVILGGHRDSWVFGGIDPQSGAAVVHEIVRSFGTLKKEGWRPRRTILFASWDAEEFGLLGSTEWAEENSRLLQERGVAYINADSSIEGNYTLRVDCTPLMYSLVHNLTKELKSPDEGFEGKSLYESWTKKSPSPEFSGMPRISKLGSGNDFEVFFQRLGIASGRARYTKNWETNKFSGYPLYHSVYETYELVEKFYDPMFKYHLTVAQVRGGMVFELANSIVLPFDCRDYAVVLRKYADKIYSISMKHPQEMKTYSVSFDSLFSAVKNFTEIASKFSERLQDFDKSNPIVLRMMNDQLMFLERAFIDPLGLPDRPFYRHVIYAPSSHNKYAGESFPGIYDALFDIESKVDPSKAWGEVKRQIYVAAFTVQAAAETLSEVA
From the text: (§1) Hits resulting from the epitope 2 screen were also profiled by ELISA and flow.
(§2) Hits resulting from the epitope 3 screen were scaled up and subjected to ELISA and flow experiments.
(§3) Hits resulting from the epitope 4 screen were also profiled in ELISA and flow cytometry.
(§4) To increase the throughput of the screening step, three epitopes were mixed and screened against the pre-cleared library. PSMA epitopes 2C, 6, and 7 were mixed and picked by either an ImmPACT Vector Red or BCIP/NBT dye (FIG. 11). The ImmPACT Vector Red screen identified the hit peptide ehtye (SEQ ID NO:22). […] Further epitope selectivity can be deconvoluted via a single epitope orientation assay.

[1] = test system: LNCaP cells (a PSMA+ cell line); test: LNCaP cell adherence to hit beads; assay type: cell-based; conditions: on-bead peptide
LNCaP cells (PSMA+) = test: Flow cytometry binding to PSMA+ cells; assay type: cell-based
From the text: as §1, §2, §3, §4

PC3 (PSMA−) cells = test: Flow cytometry binding to PSMA- cells; assay type: cell-based
From the text: as §1, §2, §4

CD8 = test: ELISA selectivity over an unrelated protein; assay type: binding
full length PSMA protein = molecular target: T1, full length PSMA protein (Homo sapiens, UniProt Q04609); test: Bead screen with 50 nM full length PSMA protein; assay type: binding; conditions: beads that did not bind LNCaP cells
T1 construct: were incubated with 50 nM full length PSMA protein
T1 sequence (Q04609 whole entry): as above
From the text: Some beads were lost during this screen. Most beads turned purple. […] These will be evaluated further by calculating their binding affinities by docking against the screened epitopes 2C, 6, and 7. Clustering analysis was used to identify some interesting sequences. Sequences found in the periphery (pkvrd (SEQ ID NO:27), frvkd (SEQ ID NO:28), dyksk (SEQ ID NO:32), Grkpf (SEQ ID NO:35), kwndd (SEQ ID NO:36), tkGne (SEQ ID NO:39), kvetd (SEQ ID NO:41), neGfd (SEQ ID NO:42), ekfld (SEQ ID NO:43), dkkaw (SEQ ID NO:44), veyGn (SEQ ID NO:45)) are generally preferred because they are more interesting chemically.

PSMA-Myc-Flag (Origene) = molecular target: T2, PSMA-Myc-Flag (Origene) (Homo sapiens, UniProt Q04609); test: ELISA, PSMA immobilized via Myc-Flag tag, PCC titrated in solution; assay type: binding; conditions: biotin-PEG10-PEG10-peptide ligands
T2 construct: purchased Origene
T2 sequence (Q04609 whole entry): as above
Protocol: (§5) Epitope 5 hits were tested for binding to PSMA by ELISA (PSMA immobilized; PCC titrated in solution). Two immobilization strategies were employed: a His-tag and Myc-Flag tag (His-PSMA (Sino Biological) and PSMA-Myc-Flag (Origene)).

[2] = molecular target: T3, His-PSMA (Sino Biological) (Homo sapiens, UniProt Q04609); test: ELISA, PSMA immobilized via His-tag, PCC titrated in solution; assay type: binding; conditions: biotin-PEG10-PEG10-peptide ligands
T3 construct: purchased Sino Biological
T3 sequence (Q04609 whole entry): as above
Protocol: as §5

Row | Compound | binding to recombinant PSMA by ELISA (recombinant PSMA) | adherence of LNCaP cells to the bead [1] | binding to LNCaP (PSMA+) cells by flow (LNCaP cells (PSMA+)) | binding to PC3 / PSMA− cells by flow (PC3 (PSMA−) cells) | also measured
1 | kwtsd: LNCaP-adherent bead hit2 (Table 8) ([dK][dW][dT][dS][dD]) | no binding | good adherence | no binding |  | 
2 | svand: LNCaP-adherent bead hit3 (Table 8) ([dS][dV][dA][dN][dD]) | Binding to recombinant PSMA protein was achieved | good adherence | modest | same binding to both PSMA+ and PSMA− cells | selectivity for PSMA over an unrelated protein (CD8) (CD8): good selectivity
3 | ert dimer: dimer of epitope 2 hit ert, PEG10-ert-Tz-ert ([dE]-[dR]-[dT]; also: dimer: PEG10-ert-Tz-ert) |  |  | showed binding | showed binding | EC50 (recombinant PSMA; read-out: EC50 of binding to recombinant PSMA by ELISA): 769 nM
4 | CC(=O)N[C@H]1Cc2cn(nn2)CCCC[C@@H](C(N)=O)NC(=O)[C@@H](Cc2c[nH]cn2)NC(=O)[C@@H](Cc2c[nH]cn2)NC(=O)[C@@H](CCCCN)NC(=O)[C@@H](Cc2ccccc2)NC(=O)[C@@H](CC(C)C)NC1=O [lfkhh] (Ac-[Pra][dL][dF][dK][dH][dH][Lys(N3)]-NH2; triazole 1-7; N-terminus and C-terminus assumed) |  |  | bound equally | bound equally | 
5 | ehtye: hit of ImmPACT Vector Red screen against mixed epitopes 2C, 6, 7 ([dE][dH][dT][dY][dE]) | Binding to recombinant PSMA protein was achieved |  |  | increased binding to PSMA− cells | selectivity for PSMA over an unrelated protein (CD8) (CD8): good selectivity
6 | ert: epitope 2A/2B hit1 (Table 3) ([dE]-[dR]-[dT]) |  |  | did not show binding | did not show binding | 
7 | dntwp: dark purple bead in full length PSMA screen ([dD][dN][dT][dW][dP]) | no binding |  | no binding |  | bead colour after incubation with PSMA protein (full length PSMA protein): darker than the others
8 | CC(=O)N[C@H]1Cc2cn(nn2)CCCC[C@@H](C(N)=O)NC(=O)[C@@H](Cc2c[nH]c3ccccc23)NC(=O)[C@@H](Cc2c[nH]c3ccccc23)NC(=O)[C@@H](CCC(=O)O)NC(=O)[C@@H](CCCNC(=N)N)NC(=O)[C@@H](Cc2c[nH]cn2)NC1=O [hreww] (Ac-[Pra][dH][dR][dE][dW][dW][Lys(N3)]-NH2; triazole 1-7; N-terminus and C-terminus assumed) |  |  |  |  | binding to PSMA by ELISA (PSMA-Myc-Flag (Origene)): nanomolar binding affinity; binding to PSMA by ELISA [2]: nanomolar binding affinity
9 | dwpve: LNCaP-adherent bead hit1 (Table 8) ([dD][dW][dP][dV][dE]) | no binding | good adherence | no binding |  | 
